Data: patent US7750003B2, “Compounds-943” (AstraZeneca AB, priority 2006, dated 2010)
Values joined by “and” are separate entries in the source; they are usually repeats but may differ in a detail not shown here. Equal values may be shown once.

Columns and labels:
[1] = biological target: recombinant mTOR (FLAG-tagged, residues 1362-2549) (Homo sapiens, UniProt P42345); assay: In vitro mTOR kinase assay (Test (a), AlphaScreen); format: biochemical; conditions: ATP 20 μM, read-out: Test (a): IC50 versus mTOR kinase
Outline: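 AlphaScreen read-out: a phospho-T389 p70 S6K antibody on acceptor beads captures the phosphorylated biotin-peptide on donor beads, with signal loss indicating inhibition.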

p110α Type Ia human PI3K = biological target: T1, p110α Type Ia human PI3K (Homo sapiens, UniProt P42336); assay: In vitro PI3K enzyme assay (Test (b), AlphaScreen), p110α; format: biochemical; conditions: ATP 4 μM, read-out: Test (b): IC50 versus p110α Type Ia human PI3K
T1 construct: full length DNA of each of the p110α, p110β and p110δ Type Ia human PI3K p110 isoforms; 6-His; made in house
From the text: (b) In Vitro PI3K Enzyme Assay
The assay used AlphaScreen technology (Gray et al., Analytical Biochemistry, 2003, 313: 234-245) to determine the ability of test compounds to inhibit phosphorylation by recombinant Type I PI3K enzymes of the lipid PI(4,5)P2.
DNA fragments encoding human PI3K catalytic and regulatory subunits were isolated from cDNA libraries using standard molecular biology and PCR cloning techniques. The selected DNA fragments were used to generate baculovirus expression vectors. In particular, full length DNA of each of the p110α, p110β and p110δ Type Ia human PI3K p110 isoforms (EMBL Accession Nos. HSU79143, S67334, Y10055 for p110α, p110β and p110δ respectively) were sub-cloned into a pDEST10 vector (Invitrogen Limited, Fountain Drive, Paisley, UK). The vector is a Gateway-adapted version of Fastbac1 containing a 6-His epitope tag. […]
Biotinylated-DiC8-PI(3,4,5)P3 (50 nM; Cell Signals Inc., Catalogue No. 107), recombinant purified GST-Grp1 PH protein (2.5 nM) and AlphaScreen Anti-GST donor and acceptor beads (100 ng; Packard Bioscience Limited, Station Road, Pangbourne, Berkshire, UK, Catalogue No. 6760603M) were added and the assay plates were left for about 5 to 20 hours at room temperature in the dark. The resultant signals arising from laser light excitation at 680 nm were read using a Packard AlphaQuest instrument. […]

Sequence of recombinant mTOR (FLAG-tagged, residues 1362-2549) (P42345 1362-2549): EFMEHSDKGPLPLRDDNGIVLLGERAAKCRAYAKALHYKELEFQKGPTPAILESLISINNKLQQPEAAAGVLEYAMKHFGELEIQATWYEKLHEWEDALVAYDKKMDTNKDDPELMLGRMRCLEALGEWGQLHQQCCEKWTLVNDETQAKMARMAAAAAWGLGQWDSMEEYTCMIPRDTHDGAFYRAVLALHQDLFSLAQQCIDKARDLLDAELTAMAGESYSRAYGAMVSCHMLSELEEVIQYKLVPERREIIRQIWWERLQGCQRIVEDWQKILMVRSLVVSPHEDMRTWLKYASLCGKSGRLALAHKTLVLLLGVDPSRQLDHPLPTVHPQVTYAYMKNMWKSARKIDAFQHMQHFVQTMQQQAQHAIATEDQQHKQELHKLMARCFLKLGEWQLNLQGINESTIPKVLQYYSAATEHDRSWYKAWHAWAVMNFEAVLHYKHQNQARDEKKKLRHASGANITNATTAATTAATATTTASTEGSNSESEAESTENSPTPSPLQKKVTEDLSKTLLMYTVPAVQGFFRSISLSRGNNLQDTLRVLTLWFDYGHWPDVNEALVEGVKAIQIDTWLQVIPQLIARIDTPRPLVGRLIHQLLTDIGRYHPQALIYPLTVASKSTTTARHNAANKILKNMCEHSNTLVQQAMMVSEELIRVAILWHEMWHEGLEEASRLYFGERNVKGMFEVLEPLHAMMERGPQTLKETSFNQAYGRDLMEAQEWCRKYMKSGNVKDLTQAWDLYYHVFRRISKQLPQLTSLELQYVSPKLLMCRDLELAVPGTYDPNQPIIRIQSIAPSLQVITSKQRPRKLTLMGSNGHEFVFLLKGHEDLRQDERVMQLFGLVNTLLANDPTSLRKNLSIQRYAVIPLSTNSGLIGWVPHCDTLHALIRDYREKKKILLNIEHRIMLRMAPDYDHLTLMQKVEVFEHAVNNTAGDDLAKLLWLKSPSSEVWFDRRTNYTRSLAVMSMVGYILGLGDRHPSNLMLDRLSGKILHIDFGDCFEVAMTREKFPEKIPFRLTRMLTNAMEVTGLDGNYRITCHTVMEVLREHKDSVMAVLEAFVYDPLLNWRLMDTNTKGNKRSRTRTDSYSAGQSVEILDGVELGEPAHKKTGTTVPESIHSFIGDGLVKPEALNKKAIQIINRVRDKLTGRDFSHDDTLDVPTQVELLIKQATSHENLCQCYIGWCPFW
T1 sequence (P42336 whole entry, canonical isoform): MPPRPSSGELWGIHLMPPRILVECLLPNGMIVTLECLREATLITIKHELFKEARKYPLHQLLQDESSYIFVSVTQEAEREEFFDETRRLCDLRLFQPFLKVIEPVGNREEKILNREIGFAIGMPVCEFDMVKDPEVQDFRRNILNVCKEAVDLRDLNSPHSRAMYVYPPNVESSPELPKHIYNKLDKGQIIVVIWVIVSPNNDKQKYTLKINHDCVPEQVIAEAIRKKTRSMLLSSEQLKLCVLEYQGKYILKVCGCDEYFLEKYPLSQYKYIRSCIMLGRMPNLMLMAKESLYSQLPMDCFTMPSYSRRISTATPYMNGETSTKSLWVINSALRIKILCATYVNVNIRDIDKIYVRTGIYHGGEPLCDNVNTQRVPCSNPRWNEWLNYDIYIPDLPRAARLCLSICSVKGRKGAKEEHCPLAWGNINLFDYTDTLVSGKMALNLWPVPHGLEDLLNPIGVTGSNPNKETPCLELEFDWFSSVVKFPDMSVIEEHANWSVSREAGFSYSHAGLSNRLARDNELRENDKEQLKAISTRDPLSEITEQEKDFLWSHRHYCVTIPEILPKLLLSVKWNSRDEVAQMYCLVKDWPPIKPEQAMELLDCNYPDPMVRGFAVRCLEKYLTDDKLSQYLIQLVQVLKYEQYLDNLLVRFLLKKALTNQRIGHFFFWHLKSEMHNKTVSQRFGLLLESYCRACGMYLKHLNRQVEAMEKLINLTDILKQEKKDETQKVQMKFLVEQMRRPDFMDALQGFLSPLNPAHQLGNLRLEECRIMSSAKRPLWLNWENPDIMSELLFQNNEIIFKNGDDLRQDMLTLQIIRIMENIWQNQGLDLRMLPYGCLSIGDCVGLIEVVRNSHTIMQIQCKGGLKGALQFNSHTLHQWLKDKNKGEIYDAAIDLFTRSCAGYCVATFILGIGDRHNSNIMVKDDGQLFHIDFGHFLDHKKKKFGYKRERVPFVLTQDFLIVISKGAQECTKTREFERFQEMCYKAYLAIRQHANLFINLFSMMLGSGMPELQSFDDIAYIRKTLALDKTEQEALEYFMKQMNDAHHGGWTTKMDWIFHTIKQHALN
T1 sequence (P27986 whole entry partner, canonical isoform): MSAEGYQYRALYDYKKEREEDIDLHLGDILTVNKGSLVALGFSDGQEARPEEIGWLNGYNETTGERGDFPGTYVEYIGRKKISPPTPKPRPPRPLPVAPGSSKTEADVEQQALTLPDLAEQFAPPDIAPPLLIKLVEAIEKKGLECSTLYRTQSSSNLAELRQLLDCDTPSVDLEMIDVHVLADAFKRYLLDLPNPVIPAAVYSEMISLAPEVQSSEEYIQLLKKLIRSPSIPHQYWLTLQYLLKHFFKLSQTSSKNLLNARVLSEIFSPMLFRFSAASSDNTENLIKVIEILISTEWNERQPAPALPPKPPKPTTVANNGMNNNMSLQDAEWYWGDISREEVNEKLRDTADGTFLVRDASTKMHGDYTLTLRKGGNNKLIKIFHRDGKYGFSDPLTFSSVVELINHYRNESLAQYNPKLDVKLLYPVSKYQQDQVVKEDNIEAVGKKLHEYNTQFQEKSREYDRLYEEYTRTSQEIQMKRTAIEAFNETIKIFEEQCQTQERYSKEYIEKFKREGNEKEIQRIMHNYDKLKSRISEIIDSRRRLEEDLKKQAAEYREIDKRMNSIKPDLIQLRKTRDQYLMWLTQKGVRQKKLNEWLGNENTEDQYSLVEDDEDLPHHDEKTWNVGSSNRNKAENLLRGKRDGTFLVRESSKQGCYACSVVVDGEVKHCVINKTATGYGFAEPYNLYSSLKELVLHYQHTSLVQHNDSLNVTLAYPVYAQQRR

IC50 [1]: 120 nM and 155 nM and 93 nM
IC50 (p110α Type Ia human PI3K): 91.2 µM and 57.8 µM
SMILES: Cc1cc(NC(=O)Nc2ccc(-c3nc(CS(C)(=O)=O)cc(N4CCOCC4)n3)cc2)no1 [Example 34b, 1-(5-methyl-1,2-oxazol-3-yl)-3-[4-[4-(methylsulfonylmethyl)-6-morpholin-4-yl-pyrimidin-2-yl]phenyl]urea]
